Measured values published in patent US20110166121A1 (LG LIFE SCIENCES LTD., priority 2008, published 2011).
Where a name gives a salt, the structure may show the parent alone.

test system: Human platelet aggregation caused by ADP; experiment: Inhibition of ADP-induced platelet aggregation (Mimic-human PRP); assay type: cell-based; settings: 20 μM ADP, human platelet concentrate diluted with PPP, absorption at 595 nm
How it was run: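 Human PRP diluted with PPP to 3–4×10^8 platelets/mL was preincubated 20 min at room temperature with compound (0.01–30 μM, DMSO), then stimulated with 20 μM ADP. Aggregation read as A595 increase at 3 min versus 0 and 20 μM ADP controls; Ki from sigmoidal non-linear regression.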

SMILES | Ki
CCCc1cc2c(N3CCn4c(nnc4C(F)(F)F)C3)nc(N3CC[C@@H](NC(=O)OC)C3)nc2s1 [Example 9-20, {(R)-1-[6-Propyl-4-(3-trifluoromethyl-5,6-dihydro-8H-[1,2,4]triazolo[4,3-a]pyrazin-7-yl)-thieno[2,3-d]pyrimidin-2-yl]-pyrrolidin-3-yl}-carbamic acid methyl ester] | 6 nM
CCCc1cc2c(N3CCn4c(nnc4C(F)(F)F)C3)nc(OCCCNC(=O)OC)nc2s1 [Example 9-86, {3-[6-Propyl-4-(3-trifluoromethyl-5,6-dihydro-8H-[1,2,4]triazolo[4,3-a]pyrazin-7-yl)-thieno[2,3-d]pyrimidin-2-yloxy]-propyl}-carbamic acid methyl ester] | 690 nM
CCCc1cc2c(N3CCn4c(nnc4C(F)(F)F)C3)nc(N[C@H]3CCN(C(C)=O)C3)nc2s1 [Example 8-13, 1-{(S)-3-[6-Propyl-4-(3-trifluoromethyl-5,6-dihydro-8H-[1,2,4]triazolo[4,3-a]pyrazin-7-yl)-thieno[2,3-d]pyrimidin-2-ylamino]-pyrrolidin-1-yl}-ethanone] | 3 nM
CCCc1cc2c(N3CCn4c(nnc4C(F)(F)F)C3)nc(N3CCN(C(=O)C(C)C)CC3)nc2s1 [Example 7-16, Hydrochloric acid salt of 2-Methyl-1-{4-[6-propyl-4-(3-trifluoromethyl-5,6-dihydro-8H-[1,2,4]triazolo[4,3-a]pyrazin-7-yl)-thieno[2,3-d]pyrimidin-2-yl]-piperazin-1-yl}-propan-1-one] | 590 nM
CCCCNC(=O)[C@H]1CCN(c2nc(N3CCn4c(nnc4C(F)(F)F)C3)c3cc(CCC)sc3n2)C1 [Example 9-62, (S)-1-[6-Propyl-4-(3-trifluoromethyl-5,6-dihydro-8H-[1,2,4]triazolo[4,3-a]pyrazin-7-yl)-thieno[2,3-d]pyrimidin-2-yl]-pyrrolidine-3-carboxylic acid butylamide] | 400 nM
CCCc1cc2c(N3CCn4c(nnc4C(F)(F)F)C3)nc(N3CC[C@H](NC(=O)NC4CCCC4)C3)nc2s1 [Example 9-15, 1-Cyclopentyl-3-{(S)-1-[6-propyl-4-(3-trifluoromethyl-5,6-dihydro-8H-[1,2,4]triazolo[4,3-a]pyrazin-7-yl)-thieno[2,3-d]pyrimidin-2-yl]-pyrrolidin-3-yl}-urea] | 42 nM
CCCc1cc2c(N3CCn4c(nnc4C(F)(F)F)C3)nc(-n3cc(NC(C)=O)cn3)nc2s1 [Example 9-57, N-{1-[6-Propyl-4-(3-trifluoromethyl-5,6-dihydro-8H-[1,2,4]triazolo[4,3-a]pyrazin-7-yl)-thieno[2,3-d]pyrimidin-2-yl]-1H-pyrazol-4-yl}-acetamide] | 410 nM
CCCc1cc2c(N3CCn4c(nnc4C(F)(F)F)C3)nc(-n3ccc(NC(C)=O)n3)nc2s1 [Example 9-54, N-{1-[6-Propyl-4-(3-trifluoromethyl-5,6-dihydro-8H-[1,2,4]triazolo[4,3-a]pyrazin-7-yl)-thieno[2,3-d]pyrimidin-2-yl]-1H-pyrazol-3-yl}-acetamide] | 130 nM
CCCc1cc2c(N3CCn4c(nnc4C(F)(F)F)C3)nc(N3CC[C@H](NC(=O)Nc4ccc(F)c(F)c4)C3)nc2s1 [Example 9-16, 1-(3,4-Difluoro-phenyl)-3-{(S)-1-[6-propyl-4-(3-trifluoromethyl-5,6-dihydro-8H-[1,2,4]triazolo[4,3-a]pyrazin-7-yl)-thieno[2,3-d]pyrimidin-2-yl]-pyrrolidin-3-yl}-urea] | 880 nM
CCCc1cc2c(N3CCn4c(nnc4C(F)(F)F)C3)nc(OCCNC(=O)C(C)(C)O)nc2s1 [Example 7-33, 2-Hydroxy-2-methyl-N-{2-[6-propyl-4-(3-trifluoromethyl-5,6-dihydro-8H-[1,2,4]triazolo[4,3-a]pyrazin-7-yl)-thieno[2,3-d]pyrimidin-2-yloxy]-ethyl}-propionamide] | 6.7 nM
CCCc1cc2c(N3CCn4c(nnc4C(F)(F)F)C3)nc(OCC(C)(C)NC=O)nc2s1 [Example 9-78, N-{1,1-Dimethyl-2-[6-propyl-4-(3-trifluoromethyl-5,6-dihydro-8H-[1,2,4]triazolo[4,3-a]pyrazin-7-yl)-thieno[2,3-d]pyrimidin-2-yloxy]-ethyl}-formamide] | 25 nM
CCCc1cc2c(N3CCn4c(nnc4C(F)(F)F)C3)nc(OCCN(C)C=O)nc2s1 [Example 9-93, N-Methyl-N-{2-[6-propyl-4-(3-trifluoromethyl-5,6-dihydro-8H-[1,2,4]triazolo[4,3-a]pyrazin-7-yl)-thieno[2,3-d]pyrimidin-2-yloxy]-ethyl}-formamide] | 52 nM
CCCc1cc2c(N3CCn4c(nnc4C(F)(F)F)C3)nc(OCCN(C=O)CCO)nc2s1 [Example 9-101, N-(2-Hydroxy-ethyl)-N-{2-[6-propyl-4-(3-trifluoromethyl-5,6-dihydro-8H-[1,2,4]triazolo[4,3-a]pyrazin-7-yl)-thieno[2,3-d]pyrimidin-2-yloxy]-ethyl}-formamide] | 12 nM
CCCc1cc2c(N3CCn4c(nnc4C(F)(F)F)C3)nc(OCCC(=O)NN)nc2s1 [Example 9-73, 3-[6-Propyl-4-(3-trifluoromethyl-5,6-dihydro-8H-[1,2,4]triazolo[4,3-a]pyrazin-7-yl)-thieno[2,3-d]pyrimidin-2-yloxy]-propionic acid hydrazide] | 16 nM
CCCc1cc2c(N3CCn4c(nnc4C(F)(F)F)C3)nc(OC[C@H]3CCCN3C(=O)C(C)C)nc2s1 [Example 8-30, 2-Methyl-1-{(R)-2-[6-propyl-4-(3-trifluoromethyl-5,6-dihydro-8H-[1,2,4]triazolo[4,3-a]pyrazin-7-yl)-thieno[2,3-d]pyrimidin-2-yloxymethyl]-pyrrolidin-1-yl}-propan-1-one] | 140 nM
CCCc1cc2c(N3CCn4c(nnc4C(F)(F)F)C3)nc(OCC(F)(F)F)nc2s1 [Example 9-84, 7-[6-Propyl-2-(2,2,2-trifluoro-ethoxy)-thieno[2,3-d]pyrimidin-4-yl]-3-trifluoromethyl-5,6,7,8-tetrahydro-[1,2,4]triazolo[4,3-a]pyrazine] | 680 nM
CCCC(=O)N1CC[C@H](Nc2nc(N3CCn4c(nnc4C(F)(F)F)C3)c3cc(CCC)sc3n2)C1 [Example 8-14, 1-{(S)-3-[6-Propyl-4-(3-trifluoromethyl-5,6-dihydro-8H-[1,2,4]triazolo[4,3-a]pyrazin-7-yl)-thieno[2,3-d]pyrimidin-2-ylamino]-pyrrolidin-1-yl}-butan-1-one] | 3 nM
CCCc1cc2c(N3CCn4c(nnc4C(F)(F)F)C3)nc(N(CCO)c3cnccn3)nc2s1 [Example 9-50, 2-{[6-Propyl-4-(3-trifluoromethyl-5,6-dihydro-8H-[1,2,4]triazolo[4,3-a]pyrazin-7-yl)-thieno[2,3-d]pyrimidin-2-yl]-pyrazin-2-yl-amino}-ethanol] | 230 nM
CCCc1cc2c(N3CCn4c(nnc4C(F)(F)F)C3)nc(N3CCCC(C(=O)N(C)C)C3)nc2s1 (centres unmarked) [Example 1-94, 1-[6-Propyl-4-(3-trifluoromethyl-5,6-dihydro-8H-[1,2,4]triazolo[4,3-a]pyrazin-7-yl)-thieno[2,3-d]pyrimidin-2-yl]-piperidine-3-carboxylic acid dimethylamide] | 29 nM
CCCc1cc2c(N3CCn4c(nnc4C(F)(F)F)C3)nc(N3CC[C@H](NC(=O)C(F)(F)F)C3)nc2s1 [Example 1-106, 2,2,2-Trifluoro-N-{(S)-1-[6-propyl-4-(3-trifluoromethyl-5,6-dihydro-8H-[1,2,4]triazolo[4,3-a]pyrazin-7-yl)-thieno[2,3-d]pyrimidin-2-yl]-pyrrolidin-3-yl}-acetamide] | 16 nM
CCCc1cc2c(N3CCn4c(nnc4C(F)(F)F)C3)nc(N3CCC(NC(C)=O)CC3)nc2s1 [Example 7-12, Hydrochloric acid salt of N-{1-[6-Propyl-4-(3-trifluoromethyl-5,6-dihydro-8H-[1,2,4]triazolo[4,3-a]pyrazin-7-yl)-thieno[2,3-d]pyrimidin-2-yl]-piperidin-4-yl}-acetamide] | 35 nM
CCCc1cc2c(N3CCn4c(nnc4C(F)(F)F)C3)nc(N3CC(O)C(NC=O)C3)nc2s1 (centres unmarked) [Example 9-28, N-{4-Hydroxy-1-[6-propyl-4-(3-trifluoromethyl-5,6-dihydro-8H-[1,2,4]triazolo[4,3-a]pyrazin-7-yl)-thieno[2,3-d]pyrimidin-2-yl]-pyrrolidin-3-yl}-formamide] | 0.16 nM
CCCc1cc2c(N3CCn4c(nnc4C(F)(F)F)C3)nc(OCCCCNC=O)nc2s1 [Example 9-91, N-{4-[6-Propyl-4-(3-trifluoromethyl-5,6-dihydro-8H-[1,2,4]triazolo[4,3-a]pyrazin-7-yl)-thieno[2,3-d]pyrimidin-2-yloxy]-butyl}-formamide] | 190 nM
CCCc1cc2c(N3CCn4c(nnc4C(F)(F)F)C3)nc(OCCN(C)C(=O)OC)nc2s1 [Example 9-95, Methyl-{2-[6-propyl-4-(3-trifluoromethyl-5,6-dihydro-8H-[1,2,4]triazolo[4,3-a]pyrazin-7-yl)-thieno[2,3-d]pyrimidin-2-yloxy]-ethyl}-carbamic acid methyl ester] | 7.2 nM
CCCc1cc2c(N3CCn4c(nnc4C(F)(F)F)C3)nc(OCCNC(=O)CO)nc2s1 [Example 7-32, 2-Hydroxy-N-{2-[6-propyl-4-(3-trifluoromethyl-5,6-dihydro-8H-[1,2,4]triazolo[4,3-a]pyrazin-7-yl)-thieno[2,3-d]pyrimidin-2-yloxy]-ethyl}-acetamide] | 0.8 nM
CCCc1cc2c(N3CCn4c(nnc4C(F)(F)F)C3)nc(N3CCC(NC(=O)C(C)C)CC3)nc2s1 [Example 7-14, Hydrochloric acid salt of N-{1-[6-Propyl-4-(3-trifluoromethyl-5,6-dihydro-8H-[1,2,4]triazolo[4,3-a]pyrazin-7-yl)-thieno[2,3-d]pyrimidin-2-yl]-piperidin-4-yl}-isobutyramide] | 120 nM
